Like-named read-outs stand apart in the source and are kept apart here.
How the values were obtained:
[1] = previous work; cited from earlier work
[2] = ANTS/DPX leakage assay, POPG; format: biochemical; conditions: P:L = 1:1000, pH 7 phosphate buffer
Experimental: (§1) 5 mM ANTS and 12.5 mM DPX were entrapped in 0.1 μm diameter extruded vesicles with lipids. Gel filtration chromatography of Sephadex G-100 (GE Healthcare Life Sciences Inc.) was used to remove external free ANTS/DPX from LUVs with entrapped contents. […] Leakage was measured after 3 hr incubation. 10% Triton was used as the positive control to measure the maximum leakage of the vesicle. Fluorescence emission spectra were recorded using excitation wavelength (Ex: 350 nm) and emission wavelength (Em: 510 nm) for ANTS/DPX using Synergy H1 Hybrid Multi-Mode Reader.
(§2) This detects and quantifies the release of a small fluorescent dye (ANTS/DPX; MW=˜400 Da) encapsulated in LUVs after addition of library peptides. Neutral POPC LUVs serve as a simple model for mammalian membranes, while charged POPG LUVs mimic bacterial membranes enriched in anionic lipids.

[3] = 3-kDa dextran macromolecule release assay, POPG; format: biochemical; conditions: P:L = 1:1000, pH 7 phosphate buffer
P. aeruginosa = assay: Bacterial minimum inhibitory concentration (MIC), P. aeruginosa; format: cell-based, Pseudomonas aeruginosa; conditions: 75 μM maximum tested; NDA = not determinable
Experimental: (§3) Escherichia colt strain ATCC 25922, Staphylococcus aureus strain ATCC 25923, and Pseudomonas aeruginosa strain ATCC PAO1 were used in this study. Overnight cultures were subcultured to log phase (OD600=0.3-0.6) after which cell counts were determined by measuring the OD600 (OD600 1.0=1.5×10^8 CFU/mL for S. aureus, 5×10^8 CFU/mL for E. colt, and 2.04×10^8 CFU/mL for P. aeruginosa). Bacteria in minimal media mere added to serially diluted peptides and incubated for 3 hr, followed by the addition of full growth media. After overnight incubation, the optical density of the wells was recorded on a plate reader to determine whether they were sterilized (OD<0.08) or were at stationary phase growth (OD600>0.5). Intermediate values, which were rare, were considered positive for growth. Average minimum sterilizing concentrations were calculated from the lowest peptide concentration that sterilized the bacteria in each serial dilution. The samples were done in sextuplet.

[4] = Circular dichroism secondary structure (Dichroweb), with POPG; format: physicochemical
Experimental: (§4) Dichroweb software analyzes the secondary structure of LDKA peptides from circular dichroism spectroscope. The table presents the percentage of each helix and strand structure at different temperature. The data are analyzed using CONTIN-LL method and Reference Set 4 (Optimised for 190-240 nm).
(§5) Peptide solutions (peptide concentration is 50 μM) were titrated with POPC and POPG LUVs (50, 100, 250, 500, 1000 μM) and the corresponding changes CD spectra collected. Analysis of these spectra using CD tools and Dichroweb provides an ensemble average of the changes in secondary structure in the presence of POPC and POPG LUVs (dichroweb.cryst.bbk.ac.uk), which gives a direct measure of the binding free energies for each peptide.

[5] = Membrane selectivity from high-throughput dye leakage screen; format: biochemical; conditions: PC = POPC, PG = POPG
Excerpt: as §2

[6] = Circular dichroism secondary structure (Dichroweb), with POPC; format: physicochemical
Experimental: as §4, §5

Escherichia coli biofilm = assay: Activity against biofilm, E. coli; format: cell-based; conditions: 67-150 μM peptide, 3 hr treatment
Experimental: (§6) Selected analogues were tested with each (13A). Escherichia coli biofilm, (13B). Staphylococcus aureus biofilm, and (13C) Pseudomonas aeruginosa biofilm.
(§7) However, most of the LDKA analogues fail to treat S. aureus and P. aeruginosa biofilms. Only K7H and 7F3 are capable to reduce S. aureus biofilms by ˜50% with 100 μM peptide concentration, and none of the analogues work against P. aeruginosa biofilms (FIGS. 13a-13c).

[7] = ANTS/DPX leakage assay, POPC; format: biochemical; conditions: P:L = 1:1000, pH 7 phosphate buffer
Experimental: as §1, §2

[8] = tested on: methicillin-resistant Staphylococcus aureus (MRSA); format: cell-based; conditions: 75 μM maximum tested; NDA = not determinable
[9] = tested on: ciprofloxacin-resistant E. coli
Experimental: “N.D.” means “not determined”.
Ceftazidime is active on the bacteria's cell wall and interferes with bacterial cell wall formation.^38,39 Ciprofloxacin is able to inhibit DNA gyrase, type II topoisomerase, and topoisomerase IV to separate bacterial DNA and inhibits cell division.^40 Streptomycin and gentamicin are antibiotics that can interrupt and inhibit protein synthesis.^41,42 E. coli strain ATCC 25922 cultures were grown in the presence of each of these antibiotics at elevated concentration for 10 generations.

Hemolysis assay = format: cell-based, human; conditions: human
Experimental: Fresh human red blood cells were obtained from Interstate Blood Bank, Inc., and thoroughly washed in PBS until the supernatant was clear. hRBC concentration was determined using a standard hemocytometer. In hemolysis assays serial dilutions of peptide were prepared, followed by the addition of 2×10^8 hRBC/mL. After incubation for 1 hr at 37° C. the cells were centrifuged and the released hemoglobin was measured by optical absorbance of the heme group (410 nm). Negative control was buffer only (0% lysis), and the positive control was 20 μM melittin and distilled water (100% lysis). The samples were done in triplicate.

[10] = 3-kDa dextran macromolecule release assay, POPC; format: biochemical; conditions: P:L = 1:1000, pH 7 phosphate buffer
Experimental: Several different size dextrans were prepared and labelled with both TAMRA and biotin. Conjugated dextran was entrapped in POPC LUVs as described above. External dextran was removed by incubation with immobilized streptavidin. Streptavidin labelled with an Alexa-488 fluorophore was added during the leakage experiment with the peptide as previous described.^5 The sample was then incubated for 3 hr before measuring Alexa-488 fluorescence. A control without added peptide served as the 0% leakage signal and addition of 0.05% vol. Triton X-100 was used to determine 100% leakage.

[11] = Circular dichroism secondary structure (Dichroweb), peptide only; format: physicochemical; conditions: 20 °C
Experimental: as §4, §5

[12] = Pore-size characterization by 3-kDa dextran release; format: biochemical; conditions: ‡Large pore for PG only
Excerpt: Eight LDKA peptides with different lipid selectivity and pore sizes were selected from the high-throughput screen and sequenced. […] The most common mutation is L to A, occurred 13 times and in 7 out of the 8 peptides, followed by A to L, which occurred 6 times in 5 peptides, L to D which occurred 3 times in 3 peptides, and L to P that occurred once. Lysine (K) is not favorable to be shown at the position 6, 8, 10, 12, and 13, which is the non-polar face of the helical structure. […] More specifically, the analogs only induce leakage from anionic POPG vesicles have 4-5 leucines, which is less than the analogs that can porate both POPC and POPG vesicles and have 6-7 leucines in their sequences.

[13] = provided by the distributor, GenScript; cited from earlier work
[14] = tested on: Staphylococcus aureus biofilm; assay: Activity against biofilm, S. aureus; format: cell-based; conditions: 100 μM peptide concentration, 3 hr treatment
Experimental: as §6, §7

S. aureus = assay: Bacterial minimum inhibitory concentration (MIC), S. aureus; format: cell-based, Staphylococcus aureus; conditions: 75 μM maximum tested; NDA = not determinable
Experimental: as §3

Substance | Minimum Inhibitory Concentration, P. aeruginosa (P. aeruginosa) | Peptide-POPG, Helix ([4]; 20 °C) [%] | Peptide-POPG, Strand ([4]; 20 °C) [%] | Peptide-POPG, Helix ([4]; 45 °C) [%] | Peptide-POPG, Strand ([4]; 45 °C) [%] | Peptide-POPG, Helix ([4]; 70 °C) [%] | Peptide-POPG, Strand ([4]; 70 °C) [%] | Peptide-POPG, Helix ([4]; 95 °C) [%] | Peptide-POPG, Strand ([4]; 95 °C) [%] | Peptide-POPC, Helix ([6]; 20 °C) [%] | Peptide-POPC, Strand ([6]; 20 °C) [%] | Peptide-POPC, Helix ([6]; 45 °C) [%] | Peptide-POPC, Strand ([6]; 45 °C) [%] | Peptide-POPC, Helix ([6]; 70 °C) [%] | Peptide-POPC, Strand ([6]; 70 °C) [%] | Peptide-POPC, Helix ([6]; 95 °C) [%] | Peptide-POPC, Strand ([6]; 95 °C) [%] | Peptide-only, Helix [11] [%] | Peptide-only, Strand [11] [%] | Solubility, DMSO [13] [mg/mL] | other results
GL5RL5G: polyleucine-based peptide of the acetyl-GLnRLnG-amide family, n=5 (SEQ ID NO: 28) (Ac-GLLLLLRLLLLLG-NH2) |  |  |  |  |  |  |  |  |  |  |  |  |  |  |  |  |  |  |  |  | ΔGS→TM [1]: 2.1 ± 0.2 kcal/mol
GL6RL6G: polyleucine-based peptide of the acetyl-GLnRLnG-amide family, n=6 (SEQ ID NO: 29) (Ac-GLLLLLLRLLLLLLG-NH2) |  |  |  |  |  |  |  |  |  |  |  |  |  |  |  |  |  |  |  |  | ΔGS→TM [1]: 0.5 ± 0.3 kcal/mol
H-GLDDLAKLLLKLAGW-NH2 [Peptide 25B2] | NDA | 98 | 0 | 98 | 0 | 93 | 0 | 87 | 1 | 80 | 3 | 90 | 1 | 81 | 1 | 61 | 6 | 67 | 3 | 15 | ANTS/DPX release, POPG [2]: 99%; 3-kDa Dextran release, POPG [3]: 100%; Membrane selectivity (POPC vs POPG vesicles) [5]: Non-selective; Elimination of E. coli biofilm (Escherichia coli biofilm): ~50%; ANTS/DPX release, POPC [7]: 98%; Minimum Inhibitory Concentration, MRSA [8]: NDA; MIC, ciprofloxacin-resistant E. coli [9]: completely fail; HC50 at 1 hr (Hemolysis assay): 35.5 µM; 3-kDa Dextran release, POPC [10]: -2%; Pore size [12]: Large‡; Solubility, DPBS pH 7.1 [13]: <0.1 mg/mL; Solubility, Ultrapure Water [13]: 10 mg/mL
H-GLDDLLKALLKAAGW-NH2 [Peptide 4H9] | NDA | 93 | 0 | 91 | 0 | 83 | 0 | 73 | 1 | 82 | 0 | 77 | 0 | 66 | 4 | 47 | 11 | 63 | 2 | 15 | ANTS/DPX release, POPG [2]: 43%; Membrane selectivity (POPC vs POPG vesicles) [5]: PC > PG; Elimination of E. coli biofilm (Escherichia coli biofilm): ~50%; ANTS/DPX release, POPC [7]: 110%; Minimum Inhibitory Concentration, MRSA [8]: NDA; MIC, ciprofloxacin-resistant E. coli [9]: completely fail; HC50 at 1 hr (Hemolysis assay; peptide concentration lysing 50% of red blood cells, estimated using polynomial regression, read-out: Hemolysis Assay LC50): 56.6 µM; 3-kDa Dextran release, POPC [10]: -4%; Pore size [12]: Small; Solubility, DPBS pH 7.1 [13]: 10 mg/mL; Solubility, Ultrapure Water [13]: 5 mg/mL
H-GLLDLLHLLLKAAGW-NH2 [Peptide K7H] | does not inhibit and NDA | 53 | 11 | 59 | 8 | 77 | 2 | 77 | 2 | 65 | 5 | 80 | 1 | 80 | 2 | 72 | 3 | 62 | 4 | 15 | Reduction of S. aureus biofilms [14]: ~50%; CC50 at 1 hr (Hemolysis assay): 2300 nM; Minimum Inhibitory Concentration, S. aureus (S. aureus): 3 µM; Solubility, DPBS pH 7.1 [13]: <0.1 mg/mL; Solubility, Ultrapure Water [13]: 1 mg/mL

— patent US11059855B2, “Antimicrobial peptides and methods of making and using same” (priority 2017, dated 2021)
